Counter-ions that a name gives are not always drawn.

The test system of this assay is Balb/c male mice kept immersed in water (stress from sleep deprivation). Description: Water immersion sleep deprivation test, weight-loaded swimming; critical swimming time = time to nose first submerged for at least 10 seconds (Examples 1 and 3). Particulars: for anti-fatigue action: fatigue animal models.

Excerpt: The anti-fatigue action in the present invention, or its effectiveness as “anti-fatigue agents” can be verified by such a method as measuring the swimming time in a water immersion sleep deprivation test. Mice that have been kept in an environment such as water immersion where they are unable to have a good sleep or take a rest position so they cannot have a physical or mental rest are forced to swim under a weight load and the critical swimming time (e.g., the time it takes for the mouse to have its nose first submerged in the water for a period of ten seconds or longer or the time it takes for the mouse to have its nose finally submerged in the water (and incapable of rising up to its surface again)) is measured to confirm the degree of their fatigue. Since this is an animal model for physical or mental fatigue, an extension of the swimming time as achieved by administering it with the test substance means the verification of resistance to fatigue, as exemplified by prevention or relief of physical and/or mental fatigue or any accompanying muscle or other pains, a sufficient increase in body strength to extend the time to total exhaustion, and maintenance of physical vigor in the tired model.
The anti-fatigue effect was evaluated by the following partial modification of the method of Tanaka et al. (Neuroscience, Let. 352, 159-162, 2003): Balb/c male mice (8-week old) were purchased from Japan SLC, Inc. and conditioned in a test environment for a week, and the animals that had grown normally were subjected to the test. They were divided into five groups, as identified in Table 1, such that each group consisted of 10 animals and had the same average body weight. […] Four of those five groups were water immersion groups under stress from sleep deprivation, which were kept in breeding cages, not on paper chips but in tap water (23° C.) supplied to a depth of 7 mm, thereby depriving the mice of sleep. During a two-day immersion in water to deprive sleep, the mice were administered orally with the associated test samples for two days on a one-dose-a-day basis. Of the two test samples, the sesamin-class compounds were dissolved in olive oil and the thiamin in distilled water. The order of administration was the thiamin followed by the sesamin-class compounds; as controls, distilled water and olive oil were administered orally.
After two days of keeping under immersion in water or normal keeping, each mouse was fitted with a weight at the tail which corresponded to 8% of its body weight, and was allowed to swim in a water tank of 18 cm^φ that was filled with water to a depth of 30 cm; the time it took for each mouse to have its nose first submerged in the water for a period of at least 10 seconds was measured as the critical swimming time. […] The degree by which the administration of the test samples (sesamin-class compounds and/or vitamin B1 class compound) could shorten the critical swimming time was measured to evaluate the anti-fatigue action of the test samples.
The anti-fatigue action from independent administration of vitamin B1 class compound was evaluated as in Example 1, except that the mice were divided into nine groups as identified in Tables 3 and 4.

As for `Cc1ncc(C[n+]2csc(CCO)c2C)c(N)n1` [vitamin B1 class compound, thiamine hydrochloride], the critical swimming time result runs as follows: (Example 1, FIG. 1, 50 mg/kg vitamin B1 class compound oral, once a day for two days (comparative group 2) vs comparative group 1) “no recognizable change in critical swimming time”; (Example 3, FIG. 3, 5 mg/kg vitamin B1 class compound alone (reference group 1) vs comparative group 7) “comparable”; (Example 3, FIG. 3, 10 mg/kg vitamin B1 class compound alone (reference group 2) vs comparative group 7) “comparable”; (Example 3, FIG. 3, 25 mg/kg vitamin B1 class compound alone (reference group 3) vs comparative group 7) “comparable”; (Example 3, FIG. 4, 50 mg/kg vitamin B1 class compound alone (reference group 4) vs comparative group 8) “comparable”; (Example 3, FIG. 4, 100 mg/kg vitamin B1 class compound alone (reference group 5) vs comparative group 8) “longer”. In addition, the anti-fatigue action result was “no anti-fatigue action was observed” (only vitamin B1 class compound orally, 5 to 10 mg/kg (FIG. 3)); “no anti-fatigue action was observed” (vitamin B1 class compound independently, 5 mg/kg (FIGS. 3 and 4)); “no anti-fatigue action was observed” (vitamin B1 class compound independently, 10 mg/kg (FIGS. 3 and 4)); “no anti-fatigue action was observed” (vitamin B1 class compound independently, 25 mg/kg (FIGS. 3 and 4)); “no anti-fatigue action was observed” (vitamin B1 class compound independently, 50 mg/kg (FIGS. 3 and 4)); “enhanced” (vitamin B1 class compound independently, 100 mg/kg (FIGS. 3 and 4)).

The values above are taken from patent US8703789B2, “Compositions incorporating sesamin-class compounds and vitamin B1 class compounds” (Suntory Holdings Limited, priority 2007, dated 2014).
